The results in this text go back to US20240400579A1, “SPIROCYCLIC MODULATORS OF CHOLESTEROL BIOSYNTHESIS AND THEIR USE FOR PROMOTING REMYELINATION” (GENENTECH, INC., priority 2021, published 2024).

Test [1] deals with human emopamil binding protein and human 7-dehydrocholesterol reductase co-expressing cell membrane (Homo sapiens (Human), UniProt Q15125). Kind of test: hEBP-DHCR7 radioligand filtration binding assay with [3H]-Compound 118A*. As to conditions: radioligand [3H]-Compound 118A*; HEK293 membrane co-expressing hEBP and DHCR7. An outline of the steps: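 HEK293 membranes transiently co-expressing hEBP and hDHCR7 (10 μg/well) were incubated with [3H]-Compound 118A* (added at 25 nM) and compounds (8 doses, final 0.06–5000 nM, n=2) for 3 h at 22 °C. Bound radioactivity was read after PEI-treated GF/B filtration. IC50 came from a Hill fit of % inhibition and was converted to Ki.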

Another test has as its system EpiSC-derived OPCs. Put plainly: In vitro phenotypic screening of OPCs, MBP high-content imaging. The class given is cell-based, mouse. The following applies: Mus musculus, 72 h, percentage of MBP+ oligodendrocytes; 3 days; 0.5 nM to 1000 nM; read-out: mOPC EC50. Put shortly: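 Mouse EpiSC-derived OPCs seeded without growth factors and exposed 3 days at 37° C. to 8-point doses, 1000 nM to 0.5 nM final. Fixed cells stained for MBP and DAPI; high-content imaging gave percentage MBP+ oligodendrocytes, with EC50 from Hill-equation fit.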

Test [2] relates to zymostenol accumulation in EpiSC-derived OPCs (EBP). Kind of test: GC/MS-based sterol profiling, zymostenol accumulation. The class given is cell-based, mouse. As to conditions: Mus musculus, 24 h, 8 doses from 0.15 nM to 333 nM, read-out: mZymo GCMS EC50. Put shortly:
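EpiSC-derived mouse OPCs plated at 100,000 cells/well in N2B27 without growth factors and treated 24 h. Sterols extracted, silylated with BSTFA and measured by GC/MS (EI, full scan), quantified against cholesterol-d7. Zymostenol normalized to levels after 24 h with 100 nM positive control reference.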

human emopamil binding protein and human 7-dehydrocholesterol reductase co-expressing cell membrane, sequence (Q15125 whole entry): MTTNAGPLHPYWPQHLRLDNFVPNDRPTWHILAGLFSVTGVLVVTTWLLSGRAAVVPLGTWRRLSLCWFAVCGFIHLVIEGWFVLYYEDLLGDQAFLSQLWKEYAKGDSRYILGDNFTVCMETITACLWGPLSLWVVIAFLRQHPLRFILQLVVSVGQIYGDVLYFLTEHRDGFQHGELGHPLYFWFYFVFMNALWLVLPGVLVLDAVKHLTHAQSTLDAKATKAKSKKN

One may read the Ki as the equilibrium dissociation constant of an inhibitor or competing ligand from its target. Higher therefore signals a looser hold on the target. In general, EC50 refers to the midpoint of the concentration-response curve. In test [1], `CC(C)(CN1CCC2(C1)CS(=O)(=O)C2)Oc1ccc(C(F)(F)F)nc1` [Example 135, 6-(2-Methyl-2-((6-(trifluoromethyl)pyridin-3-yl)oxy)propyl)-2-thia-6-azaspiro[3.4]octane-2,2-dioxide] yielded an inhibition constant (Ki) of 39.6 nM. The EC50 with EpiSC-derived OPCs amounted to 140 nM; in test [2], 32 nM.

Take `C[C@H](Cc1ccnc(C(F)(F)F)c1)CN1CCC2(C1)CS(=O)(=O)C2` (single isomer, unassigned) [Compound 126B]: in test [1], the Ki stood at 67.6 nM. For the same compound, the results for the EC50 (in the test on EpiSC-derived OPCs; in test [2]) were 230 nM and 14 nM, respectively.

Compound `C[C@@H](Cc1ccc(C(F)(F)F)nc1)CN1CCC2(C1)CS(=O)(=O)C2` (single isomer, unassigned) [118A*] gave a Ki in test [1] of 22.1 nM. In addition, the values for the EC50 (in the test on EpiSC-derived OPCs; in test [2]) were 8.5 nM and 2.4 nM, respectively.

For the compound `COC(Cc1ccc(C(F)(F)F)cc1)CN1CCC2(C1)CS(=O)(=O)C2` (racemic) [Example 143, (S)-6-(2-Methoxy-3-(4-(trifluoromethyl)phenyl)propyl)-2-thia-6-azaspiro[3.4]octane 2,2-dioxide and (R)-6-(2-methoxy-3-(4-(trifluoromethyl)phenyl)propyl)-2-thia-6-azaspiro[3.4]octane 2,2-dioxide], affinity in test [1] was put at a Ki of 12.6 nM. For the same compound, the EC50 worked out at 26 nM in the test on EpiSC-derived OPCs and 2.8 nM in test [2].

`C[C@@H](Cc1cnc(C(F)(F)F)nc1)CN1CCC2(C1)CS(=O)(=O)C2` (single isomer, unassigned) [Compound 145A]: in test [1], the affinity, expressed as Ki, was 69.1 nM. In addition, the 50% effective concentration (EC50) in the test with EpiSC-derived OPCs amounted to 69 nM; in test [2], 8.1 nM.

Turning to `CC(C)(CN1CCC2(C1)CS(=O)(=O)C2)Oc1cccc(C(F)(F)F)c1` [Example 130, 6-(2-Methyl-2-(3-(trifluoromethyl)phenoxy)propyl)-2-thia-6-azaspiro[3.4]octane-2,2-dioxide], in test [1], the affinity corresponds to a Ki of 13.2 nM. Besides, the results for the EC50 (with EpiSC-derived OPCs; in test [2]) were 10 nM and 2.9 nM, respectively.

In the case of `CC(C)(CN1CCC2(C1)CS(=O)(=O)C2)Oc1ccc(OC(F)(F)F)cc1` [Example 136, 6-(2-Methyl-2-(4-(trifluoromethoxy)phenoxy)propyl)-2-thia-6-azaspiro[3.4]octane 2,2-dioxide], affinity in test [1] was put at a Ki of 14.2 nM. The values for the EC50 (in the test on EpiSC-derived OPCs; in test [2]) were 12 nM and 3.6 nM, respectively.

Compound `CC(C)(CN1CCC2(CC1)CS(=O)(=O)C2)Oc1ccc(C(F)(F)F)cc1` [Example 138, 7-(2-Methyl-2-(4-(trifluoromethyl)phenoxy)propyl)-2-thia-7-azaspiro[3.5]nonane 2,2-dioxide] yielded a Ki in test [1] of 5.04 nM. Besides, the EC50 turned out to be 2.3 nM with EpiSC-derived OPCs and 1 nM in test [2].

For `CCC(C)(C)c1ccc(CC(C)CN2CCC3(C2)CS(=O)(=O)C3)cc1` (racemic) [Compound 107, 6-(2-Methyl-3-(4-(tert-pentyl)phenyl)propyl)-2-thia-6-azaspiro[3.4]octane 2,2-dioxide], the Ki in test [1] is 10.3 nM. In addition, the EC50 amounted to 22 nM in the test with EpiSC-derived OPCs and 9.5 nM in test [2].

For `CC(C)(Cc1ccc(C(F)(F)F)nc1)CN1CCC2(C1)CS(=O)(=O)C2` [Example 140, 6-(2,2-Dimethyl-3-(6-(trifluoromethyl)pyridin-3-yl)propyl)-2-thia-6-azaspiro[3.4]octane-2,2-dioxide], the Ki in test [1] stood at 19.9 nM. The EC50 with EpiSC-derived OPCs was 5 nM; in test [2], 2.1 nM.

As to `C[C@@H](Cc1ccc(C(F)F)cc1)CN1CCC2(C1)CS(=O)(=O)C2` (single isomer, unassigned) [Compound 128A], the affinity in test [1] corresponds to a Ki of 29.6 nM. The EC50 is 370 nM with EpiSC-derived OPCs and 23 nM in test [2].

As for `CC(C)(CN1CC[C@@]2(CCS(=O)(=O)C2)C1)Oc1ccc(C(F)(F)F)cc1` (single isomer, unassigned) [Compound 141A], the Ki in test [1] amounted to 25.6 nM. For the same compound, the EC50 was 21 nM in the test on EpiSC-derived OPCs and 5.5 nM in test [2].

Consider `CC(C)(Cc1ccc(C(F)(F)F)nc1)CN1CC[C@@]2(CCS(=O)(=O)C2)C1` (single isomer, unassigned) [Compound 148B], for which the Ki in test [1] worked out at 28.6 nM. In addition, the EC50 came to 73 nM with EpiSC-derived OPCs and 7.2 nM in test [2].

Turning to `C[C@@H](Cc1cnc(C(F)(F)F)nc1)CN1CCC2(CC1)CS(=O)(=O)C2` (single isomer, unassigned) [215A*], the Ki in test [1] was determined as 105 nM. In addition, the EC50 worked out at 23 nM with EpiSC-derived OPCs and 13 nM in test [2].

As for `CC(Cc1ccc(C2CCC2)cc1)CN1CCC2(C1)CS(=O)(=O)C2` (racemic) [Compound 109A, 6-(3-(4-cyclobutylphenyl)-2-methylpropyl)-2-thia-6-azaspiro[3.4]octane 2,2-dioxide], in test [1], the Ki stood at 12.5 nM. Further, the EC50 worked out at 1.8 nM in the test with EpiSC-derived OPCs and 1.6 nM in test [2].

With `O=S1(=O)CC2(CCN(CC[C@H](F)c3ccc(C(F)(F)F)cc3)C2)C1` (single isomer, unassigned) [Compound 122B], in test [1], the Ki was found to be 13.7 nM. The results for the EC50 (in the test with EpiSC-derived OPCs; in test [2]) were 2.1 nM and 1.2 nM, respectively.

`C[C@H](Cc1cnc(C(F)(F)F)nc1)CN1CCC2(CC1)CS(=O)(=O)C2` (single isomer, unassigned) [215B*] returned a Ki in test [1] of 136 nM. Also, the EC50 in the test with EpiSC-derived OPCs came to 51 nM; in test [2] it was 17 nM.

As to `O=S1(=O)CC2(CCN(CC3(Cc4ccc(C(F)(F)F)nc4)CC3)C2)C1` [Example 157, 6-((1-((6-(Trifluoromethyl)pyridin-3-yl)methyl)cyclopropyl)methyl)-2-thia-6-azaspiro[3.4]octane 2,2-dioxide], the Ki in test [1] turned out to be 17.2 nM. The EC50 in the test on EpiSC-derived OPCs was 9.4 nM; in test [2], 12 nM.

In test [1], `CC(C)(CN1CC[C@]2(CCS(=O)(=O)C2)C1)Oc1ccc(C(F)(F)F)cc1` (single isomer, unassigned) [Compound 141B] showed a Ki of 58.4 nM. Besides, the EC50 was 480 nM in the test on EpiSC-derived OPCs and 49 nM in test [2].

Consider `O=S1(=O)CC2(CCN(CCOc3ccc(C(F)(F)F)cc3)C2)C1` [Compound 112, 6-(2-(4-(Trifluoromethyl)phenoxy)ethyl)-2-thia-6-azaspiro[3.4]octane-2,2-dioxide], for which, in test [1], affinity was put at a Ki of 13.5 nM. The EC50 came out at 33 nM with EpiSC-derived OPCs and 1.3 nM in test [2].

Regarding `C[C@@H](Cc1ccnc(C(F)(F)F)c1)CN1CCC2(C1)CS(=O)(=O)C2` (single isomer, unassigned) [Compound 126A], the Ki in test [1] turned out to be 47.4 nM. The EC50 in the test with EpiSC-derived OPCs is 10 nM; in test [2], 3.8 nM.

The compound `CC(C)(CN1CCC2(C1)CS(=O)(=O)C2)Oc1cnc(C(F)(F)F)nc1` [Example 144, 6-(2-Methyl-2-((2-(trifluoromethyl)pyrimidin-5-yl)oxy)propyl)-2-thia-6-azaspiro[3.4]octane-2,2-dioxide] displayed a Ki in test [1] of 96.6 nM. Further, the EC50 in the test with EpiSC-derived OPCs was 390 nM; in test [2], 80 nM.

In test [1], `O=S1(=O)CC2(CCN(CCOc3ccc(C(F)(F)F)nc3)CC2)C1` [Compound 230, 7-(2-((6-(Trifluoromethyl)pyridin-3-yl)oxy)ethyl)-2-thia-7-azaspiro[3.5]nonane 2,2-dioxide] came in with a Ki of 749 nM. The EC50 with EpiSC-derived OPCs is 22 nM; in test [2] it was 11 nM.

The compound `C[C@@H](Cc1ccc(C(F)(F)F)cc1)CN1CCC2(C1)CS(=O)(=O)C2` (single isomer, unassigned) [114A*] came in with a Ki in test [1] of 18.3 nM. Moreover, the EC50 is 2.4 nM in the test on EpiSC-derived OPCs and 0.37 nM in test [2].
